Measured values from patent US9101613B2, “Methods for treating neurological disease” (Neurim Pharmaceuticals (1991) Ltd., priority 2006, dated 2015).

Legend:
C57BL/6 mice [1] = assay: MPTP mouse model of Parkinson's disease, open field test; format: in vivo
Description: (§1) Three-month-old male C57BL/6 mice were housed in groups of 5 animals per cage (50 cm×25 cm×20 cm) in a temperature- and humidity-controlled environment with ad libitum access to food and water. Animals were maintained on a 12 hr light/dark schedule, with lights on at 7 A.M.
Six groups of mice were used: (1) the control mice treated with saline and vehicle (n=10), (2) the N-[2-(5-methoxy-indol-3-yl)-ethyl]-comanilamide control mice treated with saline and N-[2-(5-methoxy-indol-3-yl)-ethyl]-comanilamide at 100 or 200 mg/kg (n=5, respectively), (3) the MPTP mice treated with MPTP and vehicle (n=10) and (4) the N-[2-(5-methoxy-indol-3-yl)-ethyl]-comanilamide-treated MPTP mice treated with MPTP and N-[2-(5-methoxy-indol-3-yl)-ethyl]-comanilamide at 100 or 200 mg/kg (n=10, respectively). Mice received daily (i.p.) injections of saline or MPTP (30 mg/kg/day) dissolved in physiological saline for five consecutive days to induce Parkinsonism. […]
For the open field test, the mice were taken from their home cages and transported to the locomotor test chambers (40×40×50 cm) for 5 min and their behaviors were recorded as digital videos. The digital videos then were analyzed off-line. The distance of each mouse traveling in the locomotor test chamber was analyzed by the commercial software.

PC12 cells = assay: Glutamate-induced loss of cell viability in PC12 cells (MTT); format: cell-based
Protocol: For the cell viability assays, 24 h after seeding in 96-well plates, the cultures were pretreated with N-[2-(5-methoxy-indol-3-yl)-ethyl]-comanilamide (100 pm, 1 nM, 10 nM, 100 nM, 1 uM and 10 uM) or melatonin (1 uM) for 0 h before exposure to 4 mM glutamate. After 24 h incubation, cellular viability was evaluated by MTT assay.
PC12 cell viability was determined by the conventional 3-(4,5-dimethylthiazol-2-yl)-2,5-diphenyltetrazolium bromide (MTT) assay. PC12 cells were treated with MTT solution (0.5 mg/ml) and were then incubated at 37° C. for 4 hrs. The medium was removed and 150 μl DMSO/well was added to dissolve formazan. The absorbance at 570 nm was recorded using an enzyme-linked immunosorbent assay reader and the percentage of cell growth inhibition was calculated as follows: Cell viability (%)=A570 (treatment)/A570 (control)×100.

[2] = test system: rat primary cortical neurons; assay: Neurite outgrowth in rat primary cortical neurons; format: cell-based
Protocol: The aim of this study was to assess the potential effect of N-[2-(5-methoxy-indol-3-yl)-ethyl]-comanilamide (100 nM) after 5 days of culture on neurite outgrowth in rat primary cortical neurons. The study used three separate cultures (n=6 wells per condition); the mean value of the 3 cultures (+/−sem) was calculated.
Rat cortical neurons were cultured as described by Singer et al., 1999. Briefly pregnant female rats of 15 days gestation are killed by cervical dislocation (Rats Wistar; Janvier) and the fetuses removed from the uterus. The cortex are removed and placed in ice-cold medium of Leibovitz (L15; Invitrogen) containing 1% of Penicillin-Streptomycin (PS; Invitrogen) and 1% of bovine serum albumin (BSA; Sigma). Cortex are dissociated by trypsinisation for 20 min at 37° C. (Trypsin EDTA 1×; Invitrogen) diluted in PBS without calcium and magnesium. The reaction is stopped by the addition of Dulbecco's modified Eagle's medium (DMEM; Invitrogen) containing DNAase I grade II (0.1 mg/ml; Roche Diagnostic) and 10% of fetal calf serum (FCS; Invitrogen). Cells are then mechanically dissociated by 3 passages through a 10 ml pipette. Cells are then centrifuged at 180×g for 10 min at 10° C. The supernatant is discarded and the cells of pellet are re-suspended in a defined culture medium consisting of Neurobasal (Invitrogen) supplemented with B27 (2%; Invitrogen), L-glutamine (0.2 mM; Invitrogen) and 1% of PS solution with 10 ng/ml of Brain-derived neurotrophic factor (BDNF).
For the neurite outgrowth assay, the cells are seed with test compound A (at 100 nM) and reference compound (BDNF at 10 ng/ml used as reference control) on defined medium (Neurobasal supplemented with 2% of B27, 0.2 mM of L-glutamine and 1% of PS).
The cultures were done (a) without BDNF in order to analyse the neurotrophic effect of compounds alone and (b) with low BDNF concentration (0.5 ng/ml) in order to analyse the synergic neurotrophic effect of N-[2-(5-methoxy-indol-3-yl)-ethyl]-comanilamide with the growth factor.
After 5 days of culture in presence of N-[2-(5-methoxy-indol-3-yl)-ethyl]-comanilamide and reference, cells were fixed by a cool solution of ethanol (95%) and acetic acid (5%) for 10 min. After permeabilization with 0.1% of saponin, cells were incubated with monoclonal antibody anti microtubule associated protein 2 (MAP-2; Sigma). This antibody stains specifically cell bodies and neurite of neurons. […] Nuclei of neurons were labeled by a fluorescent marker (Hoechst solution, SIGMA). Per well, 20 pictures were taken using InCell Analyzer™ 1000 (GE Healthcare) with 20× magnification. All images were done in the same conditions. Analysis of the neuritis networks and neuron were assessed using Developer software (GE Healthcare). […]

C57BL/6 mice [3] = assay: MPTP mouse model of Parkinson's disease, striatal dopamine, DOPAC and HVA levels (HPLC); format: in vivo
Description: as §1
Six groups of mice were used: (1) the control mice treated with saline and vehicle (n=10), (2) the N-[2-(5-methoxy-indol-3-yl)-ethyl]-comanilamide control mice treated with saline and N-[2-(5-methoxy-indol-3-yl)-ethyl]-comanilamide at 100 or 200 mg/kg (n=5, respectively), (3) the MPTP mice treated with MPTP and vehicle (n=10) and (4) the N-[2-(5-methoxy-indol-3-yl)-ethyl]-comanilamide-treated MPTP mice treated with MPTP and N-[2-(5-methoxy-indol-3-yl)-ethyl]-comanilamide at 100 or 200 mg/kg (n=10, respectively). Mice received daily (i.p.) injections of saline or MPTP (30 mg/kg/day) dissolved in physiological saline for five consecutive days to induce Parkinsonism. N-[2-(5-methoxy-indol-3-yl)-ethyl]-comanilamide or vehicle was administered (i.p.) once per day for 17 days, starting on the first day of MPTP injections. Open field test, pole test, forepaw stride length test and traction test were conducted on day 14, 15, 16 and 17 after the first injections of MPTP, respectively.
To measure striatal dopamine, DOPAC and HVA levels, mice were sacrificed at day 17 after the final injection of MPTP. The striata were dissected and stored at −70° C. before assays. Striatal dopamine levels were measured by high performance liquid chromatography (HPLC) with electrochemical detection.

[4] = saline mice, 100 or 200 mg/kg i.p., both p>0.05
[5] = MPTP mice, 100 or 200 mg/kg/day i.p.

COc1ccc2[nH]cc(CCNC(=O)c3cc(=O)cco3)c2c1 [N-[2-(5-methoxy-indol-3-yl)-ethyl]-comanilamide]
traveled distance, open field test, vs MPTP mice (C57BL/6 mice [1]; MPTP mice, 100 or 200 mg/kg i.p. once per day, day 14, both p<0.01): showed more level of the traveled distance
traveled distance, open field test, vs control mice (C57BL/6 mice [1]; [4]): no significant difference in the traveled distance
effect on cell viability without glutamate (PC12 cells; 10 uM, without glutamate): had no effect on the cell viability
effect on glutamate-induced loss of cell viability (PC12 cells; 100 pm to 10 uM, all doses, 4 mM glutamate, 24 h, MTT): significantly attenuated glutamate-induced loss of cell viability
neurotrophic effect, compound alone ([2]; 100 nM alone in the culture medium, without BDNF): no neurotrophic effect
activity at 0.1 µM ([2]; Rattus norvegicus, Primary cortical neuron, 120 h, 100 nM + BDNF 0.5 ng/ml, 5 days of culture, read-out: neurite length, % of control): ~145%
striatal dopamine level vs MPTP mice (C57BL/6 mice [3]; MPTP mice, 100 or 200 mg/kg i.p., p<0.01 and p<0.05, respectively): showed more level of dopamine concentration
striatal DOPAC level (C57BL/6 mice [3]; [5]): ameliorated the MPTP-induced reductions
striatal HVA level (C57BL/6 mice [3]; [5]): ameliorated the MPTP-induced reductions
striatal dopamine level vs control mice (C57BL/6 mice [3]; [4]): no significant difference in dopamine level
